Reference: patent US11840537B2, “Preparation and application of a 5-bromoquinazoline derivative” (Hefei University of Technology, priority 2020, dated 2023)
Counter-ions that a name gives are not always drawn.

How the values were obtained:
Assay type in all cases: cell-based
leukemia HL-60 = assay: Anti-cancer activity, leukemia HL-60 cells
breast cancer cell MCF-7 = assay: Anti-cancer activity, breast cancer cell MCF-7; details: breast cancer cells (MCF-7)
colon cancer SW480 = assay: Anti-cancer activity, colon cancer SW480 cells
[1] = tested on: hepatoma carcinoma cell SMMC-7721; assay: Anti-cancer activity, hepatoma carcinoma cell SMMC-7721; details: liver cancer (SMMC-7721)

Measured: strong inhibitory activity (ED50)

COC(=O)C1(Nc2nc(=O)[nH]c3ccc(Br)cc23)c2cc(Br)ccc2NC12C(=O)Nc1ccc(Br)cc12 (stereo not shown) [compound (I), 3-[5, 5′-dibromo-3-((6-bromo-2-oxo-1,2-dihydroquinazoline-4-amino)-2′-oxo (2,3′-spirobisindole)]methyl formate]
< 10.0 µg/mL: all assays above
